According to US7105679B2, “Heteroatom containing tetracyclic derivatives as selective estrogen receptor modulators” (priority 2001, dated 2006):
pEC50, pIC50: −log10 of the molar value. “And” between values parts separate entries of the source, which are not always exact repeats. Identical values can stand only once. Like-named read-outs stand apart in the source and are kept apart here.

Legend:
[1] = test system: MCF-7 cells; assay: MCF-7 Cell Proliferation Assay (14C-thymidine, agonist and antagonist mode); type: cell-based; details: number in brackets = number of tests, NA = no detected activity at test concentration
Method: This assay was run according to the procedure described by Welshons, et al., (Breast Cancer Res. Treat., 1987, 10(2), 169-75), with minor modification.
Briefly, MCF-7 cells (from Dr. C. Jordan, Northwestern University) were maintained in RPMI 1640 phenol red free medium (Gibco) in 10% FBS (Hyclone), supplemented with bovine insulin and non-essential amino acid (Sigma). The cells were initially treated with 4-hydoxyltamoxifen (10^−8 M) and let stand at 37° C. for 24 hours. Following this incubation with tamoxifen, the cells were treated with compounds at various concentrations.
Compounds to be tested in the agonist mode were added to the culture media at varying concentrations. Compounds to be treated in the antagonist mode were prepared similarly, and 10 nM 17β-estradiol was also added to the culture media. The cells were incubated for 24 hours at 37° C. Following this incubation, 0.1 μCi of ^14C-thymidine (56 mCi/mmol, Amersham) was added to the culture media and the cells were incubated for an additional 24 hours at 37° C. The cells were then washed twice with Hank's buffered salt solution (HBSS) (Gibco) and counted with a scintillation counter. The increase in the ^14C-thymidine in the compound treated cells relative to the vehicle control cells were reported as percent increase in cell proliferation.

[2] = test system: Ishikawa cells; assay: Alkaline Phosphatase Assay in Human Endometrial Ishikawa Cells (agonist and antagonist mode); type: cell-based; details: number in brackets = number of tests, NA = no detected activity at test concentration; for pIC50: antagonist mode with 10 nM 17β-estradiol; for pEC50: agonist mode
Method: This assay was run according to the procedure described by Albert et a., Cancer Res, […], 50(11), 330-6-10, with minor modification.
Ishikawa cells (from ATCC) were maintained in DMEM/F12 (1:1) phenol red free medium (Gibco) supplemented with 10% calf serum (Hyclone). 24 hours prior to testing, the medium was changed to DMEM/F12 (1:1) phenol red free containing 2% calf serum.
Compounds to be tested in the agonist mode were added to the culture media at varying concentrations. Compounds to be treated in the antagonist mode were prepared similarly, and 10 nM 17β-estradiol was also added to the culture media. The cells were then incubated at 37° C. for 3 days. On the fourth day, the media was remove, 1 volume of 1× Dilution Buffer (Clontech) was added to the well followed by addition of 1 volume of Assay Buffer (Clontech). The cells were then incubated at room temperature for 5 minutes. […] The cells were incubated at room temperature for 10 minutes and then quantified on a luminometer. The increase of chemiluminescence over vehicle control was used to calculate the increase in alkaline phosphatase activity.

[3] = target: T1, hER-β (Homo sapiens, UniProt Q92731); assay: Estrogen Receptor β Fluorescence Polarization Assay (binding of Fluormone ES2); details: for IC50: fluorescence polarization binding, Fluormone ES2, number in brackets = No. of determinations, NA = no detected activity at test concentration, read-out: Estrogen Receptor β in μM (No.)
T1 construct: purchased Panvera
Source text: This assay monitors binding of a fluorescent analog of estrogen (Fluormone ES2, Panvera) to the estrogen receptor. Plates are read in a fluorometer that can be set to polarization mode. A decrease in […] relative to vehicle control is an indication of binding of a compound to the receptor.
It is crucial to avoid introduction of air bubbles into the reaction in each well of the 96 well plate throughout this procedure. (Bubbles on the surface of the reaction disrupt light flow, affecting the polarization reading.) However, it is also crucial to effectively mix the reaction components upon addition to the well.
On ice, a 2× standard mixture of Assay Buffer (Panvera), 10 nM DTT and 40 nM ES2 was prepared. On ice, a 2× reaction mixture of Assay Buffer (Panvera), and 20 nM hER-β (Panvera) and 40 nM ES2 was also prepared.
Dilutions of test compound were prepared in 30% (v/v) dimethyl sulfoxide/50 mM HEPES, pH 7.5. At this point, the dilutions were 40× the final required concentration.
The standard mixture at 50 μL was then added to each well. The reaction mixture at 48 μL was added to all wells. The compound dilution at 2.5 μL was added to the appropriate wells. The reaction mixtures were mixed using a manual pipette, a roll of aluminum foil adhesive cover was placed on the plate and the plate incubated at room temperature for 1 hour.

[4] = target: T2, human estrogen receptor α (Homo sapiens, UniProt P03372); assay: Estrogen Receptor α Flash Plate Assay (binding of radiolabeled estrogen); details: for IC50: flash plate binding, 0.5 nM radiolabeled estrogen, number in brackets = No. of determinations, NA = no detected activity at test concentration, read-out: Estrogen Receptor α in μM (No.)
T2 construct: purchased Panvera
T2 sequence (P03372 1-595): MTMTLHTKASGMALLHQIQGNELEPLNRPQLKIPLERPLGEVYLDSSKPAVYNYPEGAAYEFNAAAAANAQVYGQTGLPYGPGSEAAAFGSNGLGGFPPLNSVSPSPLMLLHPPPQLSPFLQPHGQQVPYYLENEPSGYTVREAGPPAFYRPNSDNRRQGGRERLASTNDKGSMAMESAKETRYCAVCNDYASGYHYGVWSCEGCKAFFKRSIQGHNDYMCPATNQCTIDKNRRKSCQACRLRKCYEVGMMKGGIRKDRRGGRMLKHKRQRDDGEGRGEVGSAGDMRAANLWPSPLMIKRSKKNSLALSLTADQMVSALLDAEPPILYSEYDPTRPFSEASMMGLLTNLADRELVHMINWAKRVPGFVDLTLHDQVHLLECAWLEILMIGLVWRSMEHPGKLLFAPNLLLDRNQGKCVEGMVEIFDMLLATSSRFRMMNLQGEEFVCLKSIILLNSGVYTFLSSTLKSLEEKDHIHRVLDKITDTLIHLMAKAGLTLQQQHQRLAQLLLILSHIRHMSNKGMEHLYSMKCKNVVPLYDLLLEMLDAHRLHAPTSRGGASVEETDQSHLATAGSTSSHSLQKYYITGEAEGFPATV
Method: This assay monitors binding of radiolabeled estrogen to the estrogen receptor. It is performed on a BioMek 2000 (Beckman). Plates are read in a scintillation counter (Packard TopCount), with decreased counts an indication of binding of a compound to the receptor.
The plate was sealed and incubated at 4° C. overnight.
On day two, each well was washed three times with 200 μL PBS, pH 7.2, at room temperature. To each well was then added 98 μL radiolabeled estrogen (0.5 nM, which equals 6 nCi for a 120 Ci/mmol batch, Amersham), diluted in ESB and 5 mM dithiothreitol (DTT). To individual wells were then added 2.5 μL test compound diluted in 30% (v/v) dimethyl sulfoxide/50 mM HEPES, pH 7.5. The wells were mixed three times by aspiration, the plate sealed and incubated at room temperature for one hour. The wells were then counted for 1 min in a TopCount scintillation counter (Packard).

[5] = Homo sapiens, MCF7, antagonist mode with 10 nM 17β-estradiol
[6] = Homo sapiens, MCF7, agonist mode

T1 sequence (Q92731 whole entry): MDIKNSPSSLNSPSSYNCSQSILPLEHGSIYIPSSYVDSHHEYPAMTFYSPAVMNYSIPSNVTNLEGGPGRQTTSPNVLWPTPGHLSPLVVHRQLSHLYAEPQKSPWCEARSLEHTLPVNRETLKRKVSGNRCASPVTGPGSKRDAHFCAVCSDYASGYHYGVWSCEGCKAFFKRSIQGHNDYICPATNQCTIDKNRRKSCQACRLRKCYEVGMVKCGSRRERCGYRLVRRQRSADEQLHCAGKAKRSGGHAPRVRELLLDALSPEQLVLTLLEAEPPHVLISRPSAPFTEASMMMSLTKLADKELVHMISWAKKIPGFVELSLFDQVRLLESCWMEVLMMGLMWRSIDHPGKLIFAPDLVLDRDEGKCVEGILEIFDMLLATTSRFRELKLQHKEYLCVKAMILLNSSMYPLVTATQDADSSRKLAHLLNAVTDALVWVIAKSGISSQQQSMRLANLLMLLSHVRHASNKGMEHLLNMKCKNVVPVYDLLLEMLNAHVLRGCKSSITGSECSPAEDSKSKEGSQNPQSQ

| pIC50 [1, 5] | pIC50 ([2]; Homo sapiens) | pIC50 [3] | IC50 [3] | IC50 [4] | pEC50 ([1]; agonist mode) | pIC50 ([1]; antagonist mode with 10 nM 17β-estradiol) | pEC50 [2] | pIC50 [2] | pEC50 [1, 6] | pEC50 ([2]; Homo sapiens) | SMILES | pIC50 [4] |
| --- | --- | --- | --- | --- | --- | --- | --- | --- | --- | --- | --- | --- |
| – | – | – | 0.189 µM | 0.0041 µM | – | – | – | – | – | – | COc1ccc2c(c1)OCCC1=C2C(c2ccc(OCCN3CCCCC3)cc2)Oc2cc(O)ccc21 (single isomer, unassigned) [Compound 301, 2-Methoxy-5R*-(+)-[4-(2-piperidin-1-yl-ethoxy)-phenyl]-11,12-dihydro-5H-6,13-dioxa-benzo[3,4]cyclohepta[1,2-a]naphthalen-8-ol] | – |
| – | – | – | 0.355 µM | 0.0116 µM | – | – | – | – | – | – | COc1ccc2c(c1)OC(c1ccc(OCCN3CCCCC3)cc1)C1=C2CCOc2cc(O)ccc21 (single isomer, unassigned) [Compound 302, 8-Methoxy-5R*-(+)-[4-(2-piperidin-1-yl-ethoxy)-phenyl]-11,12-dihydro-5H-6,13-dioxa-benzo[3,4]cyclohepta[1,2-a]naphthalen-2-ol] | – |
| 6.15 | 6.60 | – | 0.099 µM | 0.0019 µM | – | – | – | – | < 5.00 | < 5.00 | CCN(CC)CCOc1ccc(C2Oc3cc(O)ccc3C3=C2c2ccc(O)cc2OC3)cc1 (centres unmarked) [Compound 19, 5-[4-(2-Diethylamino-ethoxy)-phenyl]-5,11-dihydrochromeno[4,3-c]chromene-2,8-diol] | – |
| 6.01 | 6.08 | – | 0.011 µM | 0.015 µM | – | – | – | – | < 5.00 | < 5.00 | CN(C)CCOc1ccc(C2Oc3cc(O)ccc3C3=C2c2ccc(O)cc2OC3)cc1 (centres unmarked) [Compound 21, 5-[4-(2-Dimethylamino-ethoxy)-phenyl]-5,11-dihydrochromeno[4,3-c]chromene-2,8-diol] | – |
| < 5.00 | 6.74 | – | 0.02 µM | 0.014 µM | – | – | – | – | 7.19 | < 5.00 | CN(C)c1ccc(C2Oc3cc(O)ccc3C3=C2c2ccc(O)cc2OC3)cc1 (centres unmarked) [Compound 26, 5-[4-Dimethylamino-phenyl]-5,11-dihydro-chromeno[4,3-c]chromene-2,8-diol] | – |
| – | – | – | 6.25 µM | 0.14 µM | – | – | – | – | – | – | CC(C)(C)C(=O)Oc1ccc2c(c1)OC(c1ccc(OCCN3CCCCC3)cc1)C1=C2C(O)Oc2cc(OC(=O)C(C)(C)C)ccc21 (centres unmarked) [Compound 28] | – |
| – | – | – | 0.017 µM | 0.004 µM | – | – | – | – | – | – | CC1(c2ccc(OCCN3CCCCC3)cc2)Oc2cc(O)ccc2C2=C1c1ccc(O)cc1OC2 (centres unmarked) [Compound 29] | – |

The next lines start with the molecule.

| SMILES | pIC50 [1, 5] | pIC50 ([2]; Homo sapiens) | pIC50 [3] | IC50 [3] | IC50 [4] | pEC50 ([1]; agonist mode) | pIC50 ([1]; antagonist mode with 10 nM 17β-estradiol) | pEC50 [2] | pIC50 [2] | pEC50 [1, 6] | pEC50 ([2]; Homo sapiens) | pIC50 [4] |
| --- | --- | --- | --- | --- | --- | --- | --- | --- | --- | --- | --- | --- |
| COc1ccc2c(c1)OC(c1ccc(OCCN3CCCCC3)cc1)C1=C2CCOc2cc(OC)ccc21 (single isomer, unassigned) [Compound 300, 5R*-(+)-1-{2-[4-(2,8-Dimethoxy-11,12-dihydro-5H-6,13-dioxa-benzo[3,4]cyclohepta[1,2-a]naphthalen-5-yl)-phenoxy]-ethyl}-piperidine] | 4.76 | < 4.00 | < 5.00 | – | – | – | – | – | – | – | – | 7.22 |
| Oc1ccc2c(c1)O[C@H](c1ccc(OCCN3CCCCC3)cc1)C1=C2COc2cc(O)ccc21 (stereo in doubt) [Compound 14, 5R*-(−)-[4-(2-Piperidin-1-yl-ethoxy)-phenyl]-5,11-dihydro-chromeno[4,3-c]chromene-2,8-diol] | – | – | – | 0.15 µM | 0.0074 µM | < 5.00 | 5.25 | < 5.00 | 6.83 | – | – | – |
| Oc1ccc2c(c1)O[C@@H](c1ccc(OCCN3CCCCC3)cc1)C1=C2COc2cc(O)ccc21 (stereo in doubt) [Compound 15, 5S*-(+)-[4-(2-Piperidin-1-yl-ethoxy)-phenyl]-5,11-dihydro-chromeno[4,3-c]chromene-2,8-diol] | – | – | – | 0.017 µM and 0.028 µM | – | < 5.00 | – | < 5.00 | 6.95 | – | – | – |
| Oc1ccc2c(c1)OC(c1ccccc1)C1=C2COc2cc(O)ccc21 (centres unmarked) [Compound 6, 5-Phenyl-5,11-dihydro-chromeno[4,3-c]chromene-2,8-diol] | < 5.00 | < 5.00 | 7.80 | – | – | – | – | – | – | 7.01 | 7.48 | – |
| Oc1ccc2c(c1)OC(c1ccc(OCCN3CCCCC3)cc1)C1=C2COc2cc(O)ccc21 (centres unmarked) [Compound 9, 5-[4-(2-Piperidin-1-yl-ethoxy)-phenyl]-5,11-dihydrochromeno[4,3-c]chromene-2,8-diol] | 6.11 | 6.96 | – | 0.084 µM | 0.0023 µM | – | – | – | – | < 5.00 | < 5.00 | – |
| Oc1ccc2c(c1)OC(c1ccc(OCCN3CCCC3)cc1)C1=C2COc2cc(O)ccc21 (centres unmarked) [Compound 11, 5-[4-(2-Pyrrolidin-1-yl-ethoxy)-phenyl]-5,11-dihydrochromeno[4,3-c]chromene-2,8-diol] | 6.61 | 7.10 | 6.15 | – | – | – | – | – | – | < 5.00 | – | – |
| Oc1ccc2c(c1)OC(c1ccc(OCCN3CCOCC3)cc1)C1=C2COc2cc(O)ccc21 (centres unmarked) [Compound 13, 5-[4-(2-Morphlin-4-yl-ethoxy)-phenyl]-5,11-dihydrochromeno[4,3-c]chromene-2,8-diol] | 5.85 | 6.64 | 7.59 | – | – | – | – | – | – | < 5.00 | < 5.00 | – |
| Oc1ccc2c(c1)OC(c1ccc(OCCN3CCCCCC3)cc1)C1=C2COc2cc(O)ccc21 (centres unmarked) [Compound 17, 5-[4-(2-Azepan-1-yl-ethoxy)-phenyl]-5,11-dihydrochromeno[4,3-c]chromene-2,8-diol] | 5.45 | 6.29 | 7.51 | – | – | – | – | – | – | < 5.00 | < 5.00 | – |
